Measurements published in PubChem BioAssay AID256 (DTP/NCI, 2004).
“And” between values parts separate entries of the source, which are not always exact repeats. Equal values may be shown once. Toxic doses and inconclusive results are not listed. Rule for the calls: active = survival T/C of 150% or more; inactive = T/C below 125% in these data. Non-standard residues stand in square brackets, D forms with d. Residues, ends and D or L forms follow the SMILES beside them. ξ: configuration not given here. *: point of attachment. Bz = O=C(c1ccccc1)*; Bn = c1ccc(C*)cc1; ξC = NC(CS)C(=O)O

System: CD2F1 mice, L1210 leukemia ip, survival T/C
Assay: NCI In Vivo Anticancer Drug Screen. Data for tumor model L1210 Leukemia (intraperitoneal) in CD2F1 (CDF1) mice
Settings: higher = longer survival
Method in brief: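 Mice carrying a transplanted tumor received test compound or vehicle alone. The value is the measurement in the treated group divided by that in the vehicle-treated control group.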

[1] = endpoint: mean survival time, dose: 100.0 mg/kg/injection, schedule: Q01DX009 (ip), vehicle: saline with Tween-80
[2] = endpoint: mean survival time, dose: 100.0 mg/kg/injection, schedule: Q01DX001 (ip), vehicle: saline with Tween-80
[3] = endpoint: mean survival time, dose: 200.0 mg/kg/injection, schedule: Q01DX001 (ip), vehicle: saline with Tween-80
[4] = endpoint: mean survival time, dose: 200.0 mg/kg/injection, schedule: Q01DX009 (ip), vehicle: saline with Tween-80
[5] = endpoint: mean survival time, dose: 400.0 mg/kg/injection, schedule: Q01DX001 (ip), vehicle: saline with Tween-80
[6] = endpoint: mean survival time, dose: 400.0 mg/kg/injection, schedule: Q01DX009 (ip), vehicle: saline with Tween-80
[7] = endpoint: mean survival time, dose: 100.0 mg/kg/injection, schedule: Q01DX001 (ip), vehicle: saline
[8] = endpoint: mean survival time, dose: 200.0 mg/kg/injection, schedule: Q01DX001 (ip), vehicle: saline
[9] = endpoint: mean survival time, dose: 400.0 mg/kg/injection, schedule: Q01DX001 (ip), vehicle: saline

Measured: T/C

O=c1oc2c(O)c(O)cc3c(=O)oc4c(O)c(O)cc1c4c23
inactive: endpoint: mean survival time, dose: 12.5 mg/kg/injection, schedule: Q01DX009 (ip), vehicle: Klucel (hydroxypropylcellulose) (HPC) 100 % of control | endpoint: mean survival time, dose: 25.0 mg/kg/injection, schedule: Q01DX009 (ip), vehicle: Klucel (hydroxypropylcellulose) (HPC) 113 % of control | endpoint: mean survival time, dose: 50.0 mg/kg/injection, schedule: Q01DX009 (ip), vehicle: Klucel (hydroxypropylcellulose) (HPC) 113 % of control | endpoint: mean survival time, dose: 100.0 mg/kg/injection, schedule: Q01DX009 (ip), vehicle: Klucel (hydroxypropylcellulose) (HPC) 106 % of control | endpoint: mean survival time, dose: 200.0 mg/kg/injection, schedule: Q01DX009 (ip), vehicle: Klucel (hydroxypropylcellulose) (HPC) 95 % of control | endpoint: mean survival time, dose: 400.0 mg/kg/injection, schedule: Q01DX009 (ip), vehicle: Klucel (hydroxypropylcellulose) (HPC) 103 % of control

CC1CC(C)(C)NC(CCC2NC(C)(C)CC(C)O2)O1 (centres undefined)
inactive: [1] 92 % of control

CON(C)CC(O)c1ccccc1 (centres undefined)
inactive: endpoint: mean survival time, dose: 100.0 mg/kg/injection, schedule: Q04DX003 (ip), vehicle: saline with Tween-80 94 % of control | endpoint: mean survival time, dose: 200.0 mg/kg/injection, schedule: Q04DX003 (ip), vehicle: saline with Tween-80 92 % of control

COC(=O)C(CSCc1ccccc1)NC(=O)CNC(=O)c1ccccc1 (centres undefined) (Bz-Gly-[ξC](Bn)-OMe)
inactive: [2] 98 % of control | [1] 91 % of control | [3] 93 % of control | [4] 94 % of control | [5] 97 % of control | [6] 91 % of control

NC(CCl)=NCC12CC3CC(CC(C3)C1)C2
inactive: endpoint: median survival time, dose: 3.0 mg/kg/injection, schedule: Q01DX009 (ip), vehicle: Klucel (hydroxypropylcellulose) (HPC) 104 % of control | endpoint: median survival time, dose: 6.0 mg/kg/injection, schedule: Q01DX009 (ip), vehicle: Klucel (hydroxypropylcellulose) (HPC) 107 % of control | endpoint: median survival time, dose: 12.0 mg/kg/injection, schedule: Q01DX009 (ip), vehicle: Klucel (hydroxypropylcellulose) (HPC) 108 % of control | endpoint: median survival time, dose: 24.0 mg/kg/injection, schedule: Q01DX009 (ip), vehicle: Klucel (hydroxypropylcellulose) (HPC) 110 % of control

CC(=O)N/N=C1\CC2CCC1(C)C2(C)C (centres undefined)
inactive: [7] 102 % of control | [8] 102 % of control | [9] 98 % of control

O=c1nc(/C=C(\O)c2ccccc2)ccn1C1OC(CO)C(O)C1O (centres undefined)
inactive: endpoint: mean survival time, dose: 12.5 mg/kg/injection, schedule: Q01DX005 (ip), vehicle: distilled water + Tween-80 105 % of control | endpoint: mean survival time, dose: 25.0 mg/kg/injection, schedule: Q01DX005 (ip), vehicle: distilled water + Tween-80 94 % of control | endpoint: mean survival time, dose: 50.0 mg/kg/injection, schedule: Q01DX005 (ip), vehicle: distilled water + Tween-80 91 % of control | endpoint: mean survival time, dose: 100.0 mg/kg/injection, schedule: Q01DX005 (ip), vehicle: distilled water + Tween-80 94 % of control | endpoint: mean survival time, dose: 200.0 mg/kg/injection, schedule: Q01DX005 (ip), vehicle: distilled water + Tween-80 98 % of control

C=CCSc1ncnc2c1cnn2C1OC(CO)C(O)C1O (centres undefined)
inactive: endpoint: mean survival time, dose: 12.5 mg/kg/injection, schedule: Q01DX005 (ip), vehicle: water 102 % of control | endpoint: mean survival time, dose: 25.0 mg/kg/injection, schedule: Q01DX005 (ip), vehicle: water 98 % of control | endpoint: mean survival time, dose: 50.0 mg/kg/injection, schedule: Q01DX005 (ip), vehicle: water 98 % of control | endpoint: mean survival time, dose: 100.0 mg/kg/injection, schedule: Q01DX005 (ip), vehicle: water 102 % of control

Oc1ccc(SCc2ccc(NCc3ccccc3)cc2)cc1
inactive: endpoint: mean survival time, dose: 12.5 mg/kg/injection, schedule: Q01DX009 (ip), vehicle: DMSO 95 % of control | endpoint: mean survival time, dose: 12.5 mg/kg/injection, schedule: Q01DX009 (ip), vehicle: saline with Tween-80 99 % of control | endpoint: mean survival time, dose: 25.0 mg/kg/injection, schedule: Q01DX009 (ip), vehicle: DMSO 97 % of control | endpoint: mean survival time, dose: 25.0 mg/kg/injection, schedule: Q01DX009 (ip), vehicle: saline with Tween-80 97 % of control | endpoint: mean survival time, dose: 50.0 mg/kg/injection, schedule: Q01DX009 (ip), vehicle: DMSO 97 % of control | endpoint: mean survival time, dose: 50.0 mg/kg/injection, schedule: Q01DX009 (ip), vehicle: saline with Tween-80 103 % of control | endpoint: mean survival time, dose: 100.0 mg/kg/injection, schedule: Q01DX009 (ip), vehicle: DMSO 92 % of control | [1] 104 % of control | [4] 101 % of control | [6] 101 % of control

COc1cc(OC)c(C(=O)CCl)c(O)c1Cl
inactive: [1] 93 % of control

CSCCC(NC=O)C(=O)O (centres undefined)
inactive: endpoint: mean survival time, dose: 12.5 mg/kg/injection, schedule: Q01DX001 (ip), vehicle: saline 98 % of control | endpoint: mean survival time, dose: 25.0 mg/kg/injection, schedule: Q01DX001 (ip), vehicle: saline 93 % of control | endpoint: mean survival time, dose: 50.0 mg/kg/injection, schedule: Q01DX001 (ip), vehicle: saline 106 % of control

NCCc1nc(N)nc(N)c1-c1ccc(Cl)cc1
inactive: [2] 103 % of control | [3] 97 % of control

CCOC(=O)c1c2cccccc-2c(C#N)c1O
inactive: [2] 93 % of control | [3] 99 % of control | [5] 96 % of control

O=S(=O)(Cl)c1cccc2c(S(=O)(=O)Cl)cccc12
inactive: endpoint: mean survival time, dose: 20.0 mg/kg/injection, schedule: Q04DX003 (ip), vehicle: Klucel (hydroxypropylcellulose) (HPC) 102 % of control | endpoint: mean survival time, dose: 40.0 mg/kg/injection, schedule: Q04DX003 (ip), vehicle: Klucel (hydroxypropylcellulose) (HPC) 104 % of control | endpoint: mean survival time, dose: 80.0 mg/kg/injection, schedule: Q04DX003 (ip), vehicle: Klucel (hydroxypropylcellulose) (HPC) 95 % of control | endpoint: mean survival time, dose: 200.0 mg/kg/injection, schedule: Q04DX003 (ip), vehicle: Klucel (hydroxypropylcellulose) (HPC) 109 % of control | endpoint: mean survival time, dose: 400.0 mg/kg/injection, schedule: Q04DX003 (ip), vehicle: Klucel (hydroxypropylcellulose) (HPC) 122 % of control

CN(Cc1c[nH]c2nc(N)nc(N)c2c1=O)c1ccc(C(=O)NC(CCC(=O)O)C(=O)O)cc1 (centres undefined)
inactive: endpoint: mean survival time, dose: 0.5 mg/kg/injection, schedule: Q01DX005 (ip), vehicle: sodium bicarbonate 97 % of control and 98 % of control | endpoint: mean survival time, dose: 1.0 mg/kg/injection, schedule: Q01DX005 (ip), vehicle: distilled water + Tween-80 105 % of control | endpoint: mean survival time, dose: 1.0 mg/kg/injection, schedule: Q01DX005 (ip), vehicle: sodium bicarbonate 91 % of control and 108 % of control | endpoint: mean survival time, dose: 2.0 mg/kg/injection, schedule: Q01DX005 (ip), vehicle: distilled water + Tween-80 102 % of control | endpoint: mean survival time, dose: 2.0 mg/kg/injection, schedule: Q01DX005 (ip), vehicle: sodium bicarbonate 97 % of control and 103 % of control | endpoint: mean survival time, dose: 4.0 mg/kg/injection, schedule: Q01DX005 (ip), vehicle: distilled water + Tween-80 100 % of control | endpoint: mean survival time, dose: 4.0 mg/kg/injection, schedule: Q01DX005 (ip), vehicle: sodium bicarbonate 121 % of control and 104 % of control | endpoint: mean survival time, dose: 8.0 mg/kg/injection, schedule: Q01DX005 (ip), vehicle: distilled water + Tween-80 97 % of control | endpoint: mean survival time, dose: 8.0 mg/kg/injection, schedule: Q01DX005 (ip), vehicle: sodium bicarbonate 101 % of control | endpoint: mean survival time, dose: 16.0 mg/kg/injection, schedule: Q01DX005 (ip), vehicle: distilled water + Tween-80 102 % of control | endpoint: mean survival time, dose: 16.0 mg/kg/injection, schedule: Q01DX005 (ip), vehicle: sodium bicarbonate 98 % of control and 102 % of control

O=P(OCCCCl)(OCCCCl)C(Cl)Cl
inactive: [7] 102 % of control | [8] 102 % of control | [9] 103 % of control

O=C(O)c1c(F)cccc1Br
inactive: endpoint: mean survival time, dose: 100.0 mg/kg/injection, schedule: Q04DX002 (ip), vehicle: saline with Tween-80 102 % of control | endpoint: mean survival time, dose: 200.0 mg/kg/injection, schedule: Q04DX002 (ip), vehicle: saline with Tween-80 98 % of control | endpoint: mean survival time, dose: 400.0 mg/kg/injection, schedule: Q04DX002 (ip), vehicle: saline with Tween-80 102 % of control

[Cl][Pt+2][Cl].[NH-]CCN(CCN)CCN
inactive: endpoint: mean survival time, dose: 12.5 mg/kg/injection, schedule: Q04DX003 (ip), vehicle: saline with Tween-80 97 % of control | endpoint: mean survival time, dose: 25.0 mg/kg/injection, schedule: Q04DX003 (ip), vehicle: saline with Tween-80 98 % of control
